Results taken from patent publication US12416002B2, “Analysis system for orthogonal access to and tagging of biomolecules in cellular compartments” (ILLUMINA, INC., priority 2016, dated 2025).

Tests used:
nuclei of K562 cells = experiment: Reverse transcription/quantitative PCR of cDNA synthesis from nuclear mRNA (Example 9, Table 4); type: cell-based, human
Description: Pitstop-2 treatment increases RNA output by improving cDNA synthesis from nuclear mRNA. K562 cells were lysed with 0.1% NP40. The nuclei and cytoplasm were separated and the nuclei were washed twice, then a reverse transcription/quantitative PCR protocol was performed (ThermoFisher Maxima HT RT kit, Kapa qPCR kit, RPLPO PCR primer) with (a) no additive, (b) 0.1% SDS, or (c) 30 μM Pitstop-2. The deltaCt between no reverse transcription and reverse transcription was used as the metric to report relative cDNA synthesis efficiency. Pitstop-2 treatment boosted cDNA synthesis from nuclei 4-5 fold over untreated nuclei (Table 4).

Isolated nuclei [1] = experiment: qPCR (Cq) of library yield from nuclei transposed with Nextera Tn5 in presence of Pitstop-2 (Example 4, Table 1A); type: cell-based, human; settings: for Cq-Pitstop-2: 50,000 nuclei, 25 cy qPCR
Description: Using a standard cell culture protocol, 1×10^6 K562 cells (human lymphoma cell line) were collected from tissue culture flasks for tagmentation reaction. All cell pelleting/centrifugation steps were performed at 300×g for 3 min at 4° C. Freshly isolated cells were centrifuged and re-suspended in ice cold PBS (phosphate-buffered saline). The cells were pelleted again and incubated on ice while being suspended in 200 μL ice cold cell lysis buffer (Tris/NaCl/octylphenoxypolyethoxyethanol (IGEPAL CA-630 detergent)) for 5 min. Following this, nuclei were spun down for 3 min at 300×g, washed once with 200 of lysis buffer, and pelleted nuclei were transposed with Nextera Tn5 Transposase (TDE1) for 30 min at 55° C. in 1× Tagment DNA buffer (PN:15027866), supplemented with ([…]) or ([…]). Nuclei from each sample were pelleted and most of the supernatant was carefully removed.
(§1) One Cq value roughly corresponds to two fold difference in DNA Input. […]

Isolated nuclei [2] = experiment: qPCR (Cq) of library yield, varying Pitstop-2 with Tn5 and TsTn5 transposases (Table 1B); type: cell-based, human
Excerpt: as §1
Additional experiments were run using varying concentrations of Pitstop-2 and the Tn5 and TsTn5 transposases.

nuclei [3] = experiment: Flow cytometry of bead capture of FAM-labeled transposed nuclear material (Table 2); type: cell-based
unpurified nuclei = experiment: Yield of ATAC-seq library from unpurified nuclei (Example 8, Table 3); type: cell-based; settings: for Yield (nM) 150-1000 bp: 3% DMSO
Description: The concentration of each library was determined on the BioAnalyzer between the library range of 150-1000 bps plotted for each Pitstop-2 concentration (FIG. 7A). Additional experiments run at varying Pitstop-2 concentrations (5, 10, 30, 50, 100, and 200 μM) produced enhanced library yield over libraries produced in the absence of Pitstop-2 as shown by spectrophotometric analysis (Table 3).

[4] = tested on: Isolated nuclei of K562 cells; experiment: Visualization of FAM-labeled transposome access to nuclei (Example 3, FIG. 3); type: cell-based, human; settings: Pitstop-2 10 μM, 30 μM, 60 μM vs 2% DMSO control
Description: Using a standard cell culture protocol, 1×10^6 K562 cells (human lymphoma cell line) were collected from tissue culture flasks for tagmentation reaction. All cell pelleting/centrifugation steps were performed at 300×g for 3 min at 4° C. Freshly isolated cells were centrifuged and re-suspended in ice cold PBS (phosphate-buffered saline). The cells were pelleted again and incubated on ice while being suspended in 200 μL ice cold cell lysis buffer (Tris/NaCl/octylphenoxypolyethoxyethanol (IGEPAL CA-630 detergent)) for 5 min. Following this, nuclei were spun down for 3 min at 300×g, washed once with 200 of lysis buffer, and pelleted nuclei were transposed with Nextera Tn5 Transposase (TDE1) for 30 min at 55° C. in 1× Tagment DNA buffer (PN:15027866), supplemented with (a) Pitstop-2 in DMSO to yield 30 μM final Pitstop-2 concentration (test nuclei) or (b) 2% DMSO (control nuclei). Nuclei from each sample were pelleted and most of the supernatant was carefully removed.
The method of Example 1 was used to import FAM-labeled transposome complexes into nuclear compartments. Nuclei were isolated and treated as described in Example 1 using Nextera Tn5 transposase complexed with transposon sequence labeled during oligonucleotide synthesis at the 5′-end with FAM (6-FAM, Integrated DNA Technologies), and using the 2% DMSO control, and varying concentrations of Pitstop-2 (10 μM, 30 μM, and 60 μM).

[5] = tested on: K562 (human lymphoma cell line) nuclear content; experiment: Sequencing of transposition (ATAC-seq) libraries from K562 nuclear content (Example 5, FIG. 4); type: cell-based
Excerpt: DNA libraries were generated from K562 (human lymphoma cell line) nuclear content using methods as described in the preceding examples. […] As shown in FIG. 4A for the ATAC-seq profile over a portion of Chr 12, the libraries had targeted predominantly intergenic regions at all Pitstop-2 concentrations.

nuclei [6] = experiment: Agarose gel of indexed, amplified libraries of transposed nuclear DNA (Example 6, FIG. 5); type: cell-based; settings: Pitstop-2 0, 10, 30, 60 μM
Description: Genomic DNA transposed with Nextera Tn5 Kit in the presence of Pitstop-2 (at concentrations of 0, 10, 30, and 60 μM) as described above was released from nuclei and was captured onto indexed beads containing oligonucleotide capture sequences. Bead-captured DNA was further gap-fill ligated to covalently link both strands of genomic DNA to common sequences (including unique indices) and amplified by PCR. […] Band intensity increases correlated with increases in Pitsthop-2 concentration. Corresponding DNA fragments covered by distinct number of nucleosomes of resulted libraries contained “nucleosomal banding,” indicating successful ATAC-seq tagmentation at regions free of nucleosomes.

Mouse (3T3) nuclei = experiment: Single-cell ATAC-seq in droplets (Example 14, FIG. 11); type: cell-based
Description: Mouse (3T3) nuclei were treated with 0 μM, 30 μM, and 60 μM Pitstop-2 during cell lysis and transposition of nuclei. Pitstop-2 was used to open up nuclear pores and to allow increased transposition of open chromatin. A defined number of transposed nuclei set to ensure single nuclei occupancy was loaded into a QX200 Bio-Rad droplet generator with indexed beads designed to produce single-cell ATAC-seq libraries. Single cell libraries were PCR-amplified in droplets and then subjected to purification, and sequencing on a NextSeq® 550 Sequencing System.
Treatment of nuclei with Pitstop-2 allows more efficient transposition and increased unique coverage of open chromatin. In the presence of Pitstop-2, transposases target additional open chromatin regions outside of transcription start sites (TSS) (see FIG. 11B). […] Also observed were an alignment of pooled ATAC-seq reads generated with 0 μM, 30 μM, and 60 μM Pitstop-2 around GAPDH gene at chromosome 6 and an alignment of pooled ATAC-seq reads generated with 0 μM, 30 μM, and 60 μM Pitstop-2 around RPL10 gene at chromosome X (data not shown).

## CCCCCCCCCCCCOS(=O)(=O)[O-].[Na+] [SDS, sodium dodecyl sulfate]
Nuclei of K562 cells; Nuclei +0.1% SDS
  DeltaCt (no reverse transcription vs reverse transcription; relative cDNA synthesis efficiency): 2.47

## O=C1N=C(NS(=O)(=O)c2cccc3ccccc23)SC1=Cc1ccc(Br)cc1 [Pitstop-2, N-[5-(4-bromobenzylidene)-4-oxo-4,5-dihydro-1,3-thiazol-2-yl]naphthalene-1-sulfonamide]
Isolated nuclei [1]; Pitstop-2 0 to 80 uM
  library yield from intact nuclei vs untreated control: increases library yield compared to the untreated control
Isolated nuclei [1]; Pitstop-2 5 uM vs 0.05% DMSO control
  ΔCq-Pitstop-2 vs. Control: −0.2
Isolated nuclei [1]; Pitstop-2 5 uM
  Cq-Pitstop-2: 19.91
Isolated nuclei [1]; Pitstop-2 10 uM vs 0.10% DMSO control
  ΔCq-Pitstop-2 vs. Control: −0.65
Isolated nuclei [1]; Pitstop-2 10 uM
  Cq-Pitstop-2: 20.00
Isolated nuclei [1]; Pitstop-2 20 uM vs 0.20% DMSO control
  ΔCq-Pitstop-2 vs. Control: −1.48
Isolated nuclei [1]; Pitstop-2 20 uM
  Cq-Pitstop-2: 19.36
Isolated nuclei [1]; Pitstop-2 40 uM vs 0.40% DMSO control
  ΔCq-Pitstop-2 vs. Control: −1.26
Isolated nuclei [1]; Pitstop-2 40 uM
  Cq-Pitstop-2: 19.94
Isolated nuclei [1]; Pitstop-2 80 uM vs 0.80% DMSO control
  ΔCq-Pitstop-2 vs. Control: −2.06
Isolated nuclei [1]; Pitstop-2 80 uM
  Cq-Pitstop-2: 19.24
Isolated nuclei [2]; Transposome Tn5, Pitstop 50 μM
  Cq: 22.21
Isolated nuclei [2]; Transposome Tn5, Pitstop 100 μM
  Cq: 23.17
Isolated nuclei [2]; Transposome Tn5, Pitstop 200 μM
  Cq: 23.105
Isolated nuclei [2]; Transposome Tn5, Pitstop 300 μM
  Cq: 23.67
Isolated nuclei [2]; Transposome TsTn5, Pitstop 50 μM
  Cq: 18.32
Isolated nuclei [2]; Transposome TsTn5, Pitstop 100 μM
  Cq: 18.52
Isolated nuclei [2]; Transposome TsTn5, Pitstop 200 μM
  Cq: 18.55
Isolated nuclei [2]; Transposome TsTn5, Pitstop 300 μM
  Cq: 19.475
Nuclei [3]; Pitstop-2 10 μM
  Mean (MFU), bead capture: 1297 MFU
Nuclei [3]; Pitstop-2 30 μM
  Mean (MFU), bead capture: 1439 MFU
Nuclei [3]; Pitstop-2 60 μM
  Mean (MFU), bead capture: 1488 MFU
Nuclei [3]; Pitstop-2 treatment vs control pools
  bead capture rates of FAM-labeled transposed libraries: enhanced bead capture rates over control pools
Unpurified nuclei; Pitstop-2 5 μM
  Yield (nM) 150-1000 bp: 7.3 nM
Unpurified nuclei; Pitstop-2 10 μM
  Yield (nM) 150-1000 bp: 9.3 nM
Unpurified nuclei; Pitstop-2 20 μM
  Yield (nM) 150-1000 bp: 20.6 nM
Unpurified nuclei; Pitstop-2 50 μM
  Yield (nM) 150-1000 bp: 23.7 nM
Unpurified nuclei; Pitstop-2 100 μM
  Yield (nM) 150-1000 bp: 15.7 nM
Unpurified nuclei; Pitstop-2 200 μM
  Yield (nM) 150-1000 bp: 8.7 nM
Unpurified nuclei; Pitstop-2 10 and 100 μM, FIG. 7A
  yield of ATAC-seq library on BioAnalyzer: increased the yield of an ATAC-seq library
Nuclei of K562 cells; 30 μM Pitstop-2
  boost of cDNA synthesis from nuclei over untreated nuclei: 4-5 fold
Nuclei of K562 cells; Nuclei +30 μM Pitstop-2
  DeltaCt (no reverse transcription vs reverse transcription; relative cDNA synthesis efficiency): 7.19
[4]
  influx of FAM-labeled transposomes into nuclei: increased influx of FAM-labeled transposomes into the nuclear space
[5]; 30 and 60 μM Pitstop-2, FIG. 4C
  ATAC-seq profile, normalized coverage over promoter and coding regions: improved the ATAC-seq profile over controls
[5]; Pitstop-2-treated samples over controls, FIG. 4B
  diversity and uniqueness of whole genome sequencing coverage: better diversity and uniqueness
[5]; Pitstop-2 treatment
  access to chromatin regions (sequenced libraries): enhanced access to transposase-accessible intergenic and open chromatin regions
Nuclei [6]
  transposition yield by agarose gel electrophoresis: clear increase in transposition yield
Mouse (3T3) nuclei; 0, 30, 60 μM Pitstop-2, FIG. 11C
  ATAC-seq peak overlap (MACS-2), integrity of the assay: did not change the overall integrity of the assay
Mouse (3T3) nuclei; increasing Pitstop-2 (0, 30, 60 μM), barcodes >1 k, >10 k, >100 k unique reads, FIG. 11A
  total number of unique reads: increase in the total number of unique reads
